Assay results as given in publication PMC6696947 (European journal of pharmacology, 2019).
“Also recorded” adds a separate entry of the source.

Tests used:
rats [1] = conditions: positive control; ref Carlezon et al., 2006; Curzon et al., 2009; cited from earlier work
[2] = no reference given, cited from earlier work
[3] = no reference given, cited from earlier work; remark: listed apart in the source
[4] = no reference given; cited from earlier work
rats [5] = assay: Self-administration model; type: in vivo, male Sprague-Dawley rats; conditions: n=8
rats [6] = assay: Acetic acid-induced writhing model; type: in vivo, male Sprague-Dawley rats; conditions: test compound 20 mg/kg p.o.; morphine 10 mg/kg i.p.; Student's t-test, P<0.05
rats [7] = assay: Hot plate model; type: in vivo, male Sprague-Dawley rats; conditions: JT07/JT09 20 mg/kg p.o.; morphine 10 mg/kg i.p.; %MPE, 53.0 °C, cut-off 30 s
rats [8] = assay: Locomotor open field test; conditions: JT09 20 mg/kg p.o.; morphine 10 mg/kg i.p.

## COC(=O)[C@@H]1C[C@H](OC(C)=O)C(=O)[C@H]2[C@@]1(C)CC[C@H]1C(=O)O[C@H](c3ccoc3)C[C@]21C [Salvinorin A]
Rats [1]
  depressant-like effects (in words): known depressant-like effects at high dose levels, such as dysphoria

## D-Phe-D-Phe-D-Nle-D-Arg-NH2 [CR665]
[2]; i.v., background statement in abstract
  peripheral to central selectivity in analgesic models (in words): high peripheral to central selectivity
[2]; peripheral versus central
  peripheral-selectivity: 548 fold
[3]; background statement in abstract
  oral activity (in words): inactive when administered orally
[3]
  oral bioavailability (in words): does not have significant oral bioavailability
[4]
  efficacy in visceral and neuropathic pain (in words): has demonstrated efficacy in the treatment of visceral and neuropathic pain without the negative side-effects of centrally acting KOAs

## COC(=O)[C@H]1[C@@H](OC(=O)c2ccccc2)C[C@@H]2CC[C@H]1N2C [cocaine]
Rats [5]; cocaine 50ug/50ul bolus after JT09, nose poke, F(6,42)=4.6, P<0.0012
  number of cocaine infusions / active lever presses over 7 days: number of cocaine infusions increased over the 7 days; also recorded: number of cocaine active lever presses increased over the 7 days; also recorded: expected increase in the number of lever presses over the seven-day period
Rats [5]; cocaine after JT09, Dunnett post hoc, P<0.05
  cocaine infusions / active lever presses on days 6 and 7: significantly more infusion on days 6 and 7; also recorded: significantly more active lever presses on days 6 and 7

## CN1CC[C@]23c4c5ccc(O)c4O[C@H]2[C@@H](O)C=C[C@H]3[C@H]1C5 [morphine]
Rats [6]
  potency/efficacy versus morphine in writhing (peripheral pain): comparable analgesic activity
Rats [7]
  analgesic activity in hot plate model: potent analgesic
Rats [8]
  sedation (in words): highly sedative
